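Compound exposure: 48 hours, 5 concentrations, 96-well plates. Here, GI50 denotes the concentration required for 50% inhibition of growth.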 The source made the active and inactive calls. Cut-off read from the data, not from the text of the source: active = GI50 up to about 1.1 µM and inactive = higher.
Experiments:
Experiment in all cases: NCI anticancer screen, dose series, 48 h
BT-549 = system: BT-549
ACHN = system: ACHN
K562 = system: K562
HCT-15 = system: HCT-15
UO-31 = system: UO-31
TK-10 = system: TK-10
Malme-3M = system: Malme-3M
A549 = system: A549
KM12 = system: KM12
HL-60 = system: HL-60
NCI-H460 = system: NCI-H460
OVCAR-4 = system: OVCAR-4
OVCAR-5 = system: OVCAR-5
HOP-62 = system: HOP-62
SR = system: SR
MCF7 = system: MCF7
M14 = system: M14
MDA-MB-435 = system: MDA-MB-435
SN12C = system: SN12C
RPMI-8226 = system: RPMI-8226
MOLT-4 = system: MOLT-4
PC-3 = system: PC-3
COLO 205 = system: COLO 205
MDA-MB-231 = system: MDA-MB-231
SW-620 = system: SW-620
OVCAR-3 = system: OVCAR-3
SK-MEL-28 = system: SK-MEL-28
CAKI-1 = system: CAKI-1
T47D = system: T47D
SF-295 = system: SF-295
RXF 393 = system: RXF 393
EKVX = system: EKVX
SF-539 = system: SF-539
LOX IMVI = system: LOX IMVI
MDA-N = system: MDA-N
IGROV-1 = system: IGROV-1
NCI/ADR-RES = system: NCI/ADR-RES
HT-29 = system: HT-29
SNB-19 = system: SNB-19
DU-145 = system: DU-145
HCC 2998 = system: HCC 2998
SK-MEL-5 = system: SK-MEL-5
UACC-257 = system: UACC-257
OVCAR-8 = system: OVCAR-8
786-0 = system: 786-0
SF-268 = system: SF-268
NCI-H522 = system: NCI-H522
U-251 = system: U-251
UACC-62 = system: UACC-62
A498 = system: A498
SK-OV-3 = system: SK-OV-3
SNB-75 = system: SNB-75
NCI-H23 = system: NCI-H23
SK-MEL-2 = system: SK-MEL-2
Hs-578T = system: Hs-578T
CCRF-CEM = system: CCRF-CEM
HCT-116 = system: HCT-116
NCI-H226 = system: NCI-H226

Compound: CCOC(=O)CC1Nc2ccccc2C12CCc1c([nH]c3ccccc13)C2C(=O)OCC (stereo not drawn)
- GI50 (BT-549): > 100 µM (inactive)
- GI50 (ACHN): 28.6 µM (inactive)
- GI50 (K562): 34 µM (inactive)
- GI50 (HCT-15): 13.1 µM
- GI50 (UO-31): 36.1 µM (inactive)
- GI50 (TK-10): 32.5 µM (inactive)
- GI50 (Malme-3M): 10.5 µM (inactive)
- GI50 (A549): 14.3 µM (inactive)
- GI50 (KM12): 14.8 µM (inactive)
- GI50 (HL-60): 14.7 µM (inactive)
- GI50 (NCI-H460): 14.2 µM (inactive)
- GI50 (OVCAR-4): 12.3 µM (inactive)
- GI50 (OVCAR-5): > 100 µM (inactive)
- GI50 (HOP-62): > 100 µM (inactive)
- GI50 (SR): 17.3 µM (inactive)
- GI50 (MCF7): 13.1 µM (inactive)
- GI50 (M14): 30.5 µM (inactive)
- GI50 (MDA-MB-435): 4.79 µM (inactive)
- GI50 (SN12C): 24.7 µM (inactive)
- GI50 (RPMI-8226): 2.77 µM (inactive)
- GI50 (MOLT-4): 6.1 µM (inactive)
- GI50 (PC-3): 53.2 µM (inactive)
- GI50 (COLO 205): 5.12 µM (inactive)
- GI50 (MDA-MB-231): 22.9 µM (inactive)
- GI50 (SW-620): 6.87 µM (inactive)
- GI50 (OVCAR-3): 22.2 µM (inactive)
- GI50 (SK-MEL-28): 35.1 µM (inactive)
- GI50 (CAKI-1): 6.58 µM (inactive)
- GI50 (T47D): 10.4 µM (inactive)
- GI50 (SF-295): 3.61 µM (inactive)
- GI50 (RXF 393): 5.79 µM (inactive)
- GI50 (EKVX): 16.2 µM (inactive)
- GI50 (SF-539): 88.1 µM (inactive)
- GI50 (LOX IMVI): 26.5 µM (inactive)
- GI50 (MDA-N): 4.65 µM (inactive)
- GI50 (IGROV-1): 6.92 µM (inactive)
- GI50 (NCI/ADR-RES): 12.6 µM (inactive)
- GI50 (HT-29): 11.6 µM (inactive)
- GI50 (SNB-19): > 100 µM (inactive)
- GI50 (DU-145): > 100 µM (inactive)
- GI50 (HCC 2998): 84.9 µM (inactive)
- GI50 (SK-MEL-5): 14.8 µM (inactive)
- GI50 (UACC-257): 38 µM (inactive)
- GI50 (OVCAR-8): > 100 µM (inactive)
- GI50 (786-0): 47.5 µM (inactive)
- GI50 (SF-268): 51.4 µM (inactive)
- GI50 (NCI-H522): 7.13 µM (inactive)
- GI50 (U-251): 48.5 µM (inactive)
- GI50 (UACC-62): 9.62 µM (inactive)
- GI50 (A498): 9.42 µM (inactive)
- GI50 (SK-OV-3): 6.4 µM (inactive)
- GI50 (SNB-75): 0.0728 µM (active)
- GI50 (NCI-H23): 51.2 µM (inactive)
- GI50 (SK-MEL-2): 27 µM (inactive)
- GI50 (Hs-578T): 8.18 µM (inactive)
- GI50 (CCRF-CEM): 0.359 µM (active)
- GI50 (HCT-116): 12.9 µM (inactive)

Compound: O=C(CN1C(=O)c2ccccc2C1=O)NC1(C(=O)O)CCCC1
- GI50 (BT-549): > 100 µM (inactive)
- GI50 (ACHN): > 100 µM (inactive)
- GI50 (K562): > 100 µM (inactive)
- GI50 (HCT-15): > 100 µM
- GI50 (UO-31): > 100 µM (inactive)
- GI50 (TK-10): > 100 µM (inactive)
- GI50 (Malme-3M): > 100 µM (inactive)
- GI50 (A549): > 100 µM (inactive)
- GI50 (KM12): > 100 µM (inactive)
- GI50 (HL-60): > 100 µM (inactive)
- GI50 (OVCAR-4): > 100 µM (inactive)
- GI50 (OVCAR-5): > 100 µM (inactive)
- GI50 (HOP-62): > 100 µM (inactive)
- GI50 (SR): > 100 µM (inactive)
- GI50 (MCF7): > 100 µM (inactive)
- GI50 (M14): > 100 µM (inactive)
- GI50 (MDA-MB-435): > 100 µM (inactive)
- GI50 (SN12C): > 100 µM (inactive)
- GI50 (RPMI-8226): > 100 µM (inactive)
- GI50 (MOLT-4): > 100 µM (inactive)
- GI50 (PC-3): > 100 µM (inactive)
- GI50 (COLO 205): > 100 µM (inactive)
- GI50 (MDA-MB-231): > 100 µM (inactive)
- GI50 (SW-620): > 100 µM (inactive)
- GI50 (OVCAR-3): > 100 µM (inactive)
- GI50 (SK-MEL-28): > 100 µM (inactive)
- GI50 (CAKI-1): > 100 µM (inactive)
- GI50 (T47D): > 100 µM (inactive)
- GI50 (SF-295): > 100 µM (inactive)
- GI50 (RXF 393): > 100 µM (inactive)
- GI50 (EKVX): > 100 µM (inactive)
- GI50 (LOX IMVI): > 100 µM (inactive)
- GI50 (MDA-N): > 100 µM (inactive)
- GI50 (IGROV-1): > 100 µM (inactive)
- GI50 (NCI/ADR-RES): > 100 µM (inactive)
- GI50 (HT-29): > 100 µM (inactive)
- GI50 (SNB-19): > 100 µM (inactive)
- GI50 (DU-145): > 100 µM (inactive)
- GI50 (HCC 2998): > 100 µM (inactive)
- GI50 (SK-MEL-5): > 100 µM (inactive)
- GI50 (UACC-257): > 100 µM (inactive)
- GI50 (NCI-H226): > 100 µM (inactive)
- GI50 (OVCAR-8): > 100 µM (inactive)
- GI50 (786-0): > 100 µM (inactive)
- GI50 (SF-268): > 100 µM (inactive)
- GI50 (NCI-H522): > 100 µM (inactive)
- GI50 (U-251): > 100 µM (inactive)
- GI50 (UACC-62): > 100 µM (inactive)
- GI50 (A498): > 100 µM (inactive)
- GI50 (SK-OV-3): > 100 µM (inactive)
- GI50 (SNB-75): > 100 µM (inactive)
- GI50 (NCI-H23): > 100 µM (inactive)
- GI50 (SK-MEL-2): > 100 µM (inactive)
- GI50 (Hs-578T): > 100 µM (inactive)
- GI50 (CCRF-CEM): > 100 µM (inactive)
- GI50 (HCT-116): > 100 µM (inactive)

Reference: ChEMBL document CHEMBL1201862, “PubChem BioAssay data set” (2004)
